Results as given in PMC3731522, “Arginase II inhibitory activity of flavonoid compounds from Scutellaria indica” (Archives of Pharmacal Research, 2013).

Target: T1, Arginase II (Mus musculus, UniProt O08691)
T1 construct: Tissue lysates of kidney were prepared using lysis buffer; from tissue; host or cells: kidney of C57BL/6 mice
T1 sequence (O08691 23-354): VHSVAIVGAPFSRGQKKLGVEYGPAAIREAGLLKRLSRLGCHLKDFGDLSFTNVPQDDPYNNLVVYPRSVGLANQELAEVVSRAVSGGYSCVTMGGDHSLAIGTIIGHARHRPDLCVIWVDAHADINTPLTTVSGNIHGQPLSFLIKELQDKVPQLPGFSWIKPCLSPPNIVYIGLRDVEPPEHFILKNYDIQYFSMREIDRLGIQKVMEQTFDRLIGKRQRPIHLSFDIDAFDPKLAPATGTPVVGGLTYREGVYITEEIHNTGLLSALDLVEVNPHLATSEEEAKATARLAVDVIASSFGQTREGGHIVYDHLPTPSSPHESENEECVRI
Assay: Arginase II inhibitory activity, enzyme solution from mouse kidney lysate, urea determined at 550 nm
Format: biochemical
Settings: kidney lysates of C57BL/6 mice; 50 % inhibition relative to vehicle control; average of three repeated experiments
Description: Arginase II solution was prepared from kidney lysates of anesthetized C57BL/6 mice (White et al. [2006]). Tissue lysates of kidney were prepared using lysis buffer (50 mM Tris–HCl, pH7.5, 0.1 mM EDTA and protease inhibitors) by homogenization at 4 °C followed by centrifugation for 20 min at 14,000×g at 4 °C. Briefly, […] lysates were added to Tris–HCl. The hydrolysis reaction of L-arginine by Arg was performed by incubating the mixture containing activated Arg and was stopped by adding acid solution. For calorimetric determination of urea, α-isonitrosopropiophenone was added, and the mixture was heated at 100 °C for 45 min. After placing the sample in the dark for 10 min at room temperature, the urea concentration was determined spectrophotometrically by the absorbance at 550 nm (White et al. [2006]).

| SMILES | IC50 [µM] |
| --- | --- |
| COc1ccc([C@H]2C[C@H](OC)c3c(OC)c(OC)c(OC)c(OC)c3O2)cc1 [Compound 1, (2R,4S)-4,5,6,7,8,4′-hexamethoxylflavan] | > 200 |
| COc1c(O)cc(O)c2c(=O)cc(-c3ccccc3)oc12 [Compound 2, wogonin] | > 200 |
| COc1ccccc1[C@@H]1CC(=O)c2c(O)cc(O)c(OC)c2O1 [Compound 3, (2S)-5,7-dihydroxy-8,2′-dimethoxyflavanone] | 25.1 ± 2.6 |
| O=c1cc(-c2ccc(O)cc2)oc2cc(O)cc(O)c12 [Compound 4, apigenin] | > 200 |
| COc1cc(O)c2c(c1OC)O[C@H](c1cc(O)ccc1O)CC2=O [Compound 5, (2S)-5,2′,5′-trihydroxy-7,8-dimethoxyflavanone] | 11.6 ± 1.2 |

Second part, the compound after the results:

| IC50 [µM] | SMILES |
| --- | --- |
| > 200 | O=C1C[C@@H](c2ccc(O)cc2)Oc2cc(O)cc(O)c21 [Compound 6, naringenin] |
| > 200 | O=C1C[C@@H](c2ccc(O)cc2)Oc2cc(O)cc(O[C@@H]3O[C@H](CO)[C@@H](O)[C@H](O)[C@H]3O)c21 [Compound 7, naringenin-5-O-β-D-glucopyranoside] |
| > 200 | COc1cc(O)c2c(c1OC)OC(c1cc(O)ccc1OC1OC(CO)C(O)C(O)C1O)CC2=O [Compound 8, (2S)-5,5′-dihydroxy-7,8-dimethoxyflavanone-2′-O-β-D-glucopyranoside] |
| 1 ± 0.1 | OC[C@H]1O[C@@H](Oc2cc(/C=C/c3cc(O)cc(O)c3)ccc2O)[C@H](O)[C@@H](O)[C@@H]1O [PG, piceatannol-3′-O-β-D-glucopyranoside, reference compound] |

System: not given
Assay: not given
Settings: not given

| melting point [°C] | SMILES |
| --- | --- |
| 218 to 220 | COc1ccc([C@H]2C[C@H](OC)c3c(OC)c(OC)c(OC)c(OC)c3O2)cc1 [Compound 1, (2R,4S)-4,5,6,7,8,4′-hexamethoxylflavan] |
